Measured values from publication PMC12198407, “Preclinical and first-in-human of purinostat mesylate, a novel selective HDAC I/IIb inhibitor, in relapsed/refractory multiple myeloma and lymphoma” (Signal Transduction and Targeted Therapy, 2025).
“And” between values parts separate entries of the source, which are not always exact repeats. Equal entries are not always repeated. Where two headings read alike, the source gives them in different places.

Key:
CYP3A4 = molecular target: T1, CYP3A4 (Homo sapiens, UniProt P08684); assay: CYP inhibition, human liver microsomes; assay type: in vitro ADME
T1 construct: human liver microsomal cytochrome P450 isoenzymes; from tissue; host or cells: human liver microsomes

[1] = tested on: Salmonella typhimurium TA97, TA98, TA100, TA102, TA1535; assay: Microbial reverse mutation test (Ames); details: 50–5000 μg/plate, with and without S9
Experimental: In this experiment, two methods were selected: one with the S9 metabolic activation system and one without. The test strains used were histidine-dependent mutant strains of Salmonella typhimurium, specifically TA97, TA98, TA100, TA102, and TA1535. Under both conditions, with and without the S9 metabolic activation system, Purinostat Mesylate was tested at a maximum dose of 5000 μg/plate, along with four additional dose groups of 1500, 500, 150, and 50 μg/plate. A solvent control group (DMSO) and a positive control group (administering the appropriate positive agent) were also included, with each concentration tested in triplicate. The experiment was repeated once.

[2] = Systemic active allergic test; assay type: in vivo, guinea pigs; details: 0.204 and 0.612 mg/mL
Experimental: This experiment included a negative control group, a positive control group, a blank formulation group of injectable Purinostat Mesylate, and low and high dose groups of injectable Purinostat Mesylate, with 6 British guinea pigs in each group, evenly divided by sex. During the sensitization phase, the low and high dose groups received intravenous injections of 0.204 mg/mL and 0.612 mg/mL of injectable Purinostat Mesylate (1 and 3 times the maximum intended clinical concentration, respectively) at a volume of 0.5 mL per guinea pig. The blank formulation group received intravenous injections of the excipient in the same volume as the high dose group. The negative control group received an equal volume of 0.9% sodium chloride injection, while the positive control group received an intraperitoneal injection of 4 mg of ovalbumin solution per guinea pig. Sensitization was performed once every other day for a total of 3 consecutive sensitizations. On days 14 and 21 after the last sensitization, each group received an intravenous injection of 2 times the sensitizing dose to provoke an allergic response. Reactions and mortality were observed 30 minutes after the provocation injection.

HDAC I/IIb = tested on: HDAC I/IIb; parameters: method as in PMID 27186676, PMID 31439580; details: range over isoforms; read-out: IC50 against HDAC I/IIb; cited from earlier work
[3] = Chronic toxicity test, 4 weeks; assay type: in vivo, rats
Experimental: In this study, the low, medium, and high dose groups were set at 3, 10, and 30 mg/kg, respectively. The blank formulation was set at low and high doses of 45 and 450 mg/kg, corresponding to the doses of hydroxypropyl beta-cyclodextrin in the low and high dose groups of injectable Purinostat Mesylate. Dosing occurred once every two days, three times a week, for a total of four weeks, with some animals undergoing a four-week recovery period after the treatment ended. The main results indicated no mortality. In the high-dose group, symptoms included sparse fur, reduced activity, and scabbing at the injection site. […] The primary toxic target organs or systems included the immune system (spleen, thymus, various lymph nodes), submandibular gland, bone marrow, testis, and epididymis.

[4] = tested on: class I HDAC substrates histone H3 and H4 in SUDHL-6, Daudi, Raji, Ramos, RPMI-8226; assay: Cellular acetylation of histone H3 and H4; assay type: cell-based, human
Description: The results of these cell experiments were consistent with the in vitro enzyme activity assay results.

[5] = Pharmacokinetics in plasma and tumor, HCT116 tumor-bearing mice; assay type: in vivo, nude mice
Experimental: The mean residence time (MRT) was 0.51 ± 0.06 hours in plasma and 39.48 ± 4.74 hours in tumor.

T1 sequence (P08684 whole entry): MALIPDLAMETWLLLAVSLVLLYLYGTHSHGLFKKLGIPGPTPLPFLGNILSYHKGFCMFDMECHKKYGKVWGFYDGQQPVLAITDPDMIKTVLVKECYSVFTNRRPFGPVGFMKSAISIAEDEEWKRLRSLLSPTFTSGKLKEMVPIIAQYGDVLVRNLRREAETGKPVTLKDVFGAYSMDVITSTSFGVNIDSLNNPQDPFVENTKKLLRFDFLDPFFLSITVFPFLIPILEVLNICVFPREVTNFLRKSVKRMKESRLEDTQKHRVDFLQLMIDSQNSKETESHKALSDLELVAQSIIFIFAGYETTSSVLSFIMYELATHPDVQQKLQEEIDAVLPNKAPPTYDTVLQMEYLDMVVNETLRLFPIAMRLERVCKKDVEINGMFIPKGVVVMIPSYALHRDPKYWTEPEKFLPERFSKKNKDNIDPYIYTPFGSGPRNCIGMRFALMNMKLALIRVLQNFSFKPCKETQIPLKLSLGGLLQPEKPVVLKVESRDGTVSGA

CN(Cc1nc2c(N3CCOCC3)nc(-c3ccc(N)cc3)nc2n1C)c1ncc(C(=O)NO)cn1.CS(=O)(=O)O [PM, 2-(((2-(4-Aminophenyl)-9-methyl-6-(4-morpholinyl)-9H-purine-8-yl)methyl)methylamino)-N-hydroxy-5-pyrimidine-carboxamide Mesylate]
IC50 (CYP3A4; midazolam as the substrate): > 10 µM | IC50 (CYP3A4; testosterone as the substrate): 1.13 µM | Ames test result [1]: negative | systemic active allergic test outcome [2]: negative | IC50 (HDAC I/IIb): 0.00081 to 0.0115 µM | mortality ([3]; 3, 10, 30 mg/kg): no mortality | highest no serious toxicity dose (HNSTD) ([3]; three times a week, four weeks): 30 mg/kg | concentration inducing increased acetylation of histone H3 and H4 [4]: 0.3 to 1 nM | tumor AUC(0-96h) ([5]; multiple i.v. 10 mg/kg): 9068 ± 213 µg·h/L | Cmax ([5]; nude, mouse, plasma, iv, 10 mg/kg, single i.v. 10 mg/kg, read-out: Cmax in plasma): 442 ± 67.2 ng/mL | MRT ([5]; nude, mouse, plasma, iv, 10 mg/kg, single i.v. 10 mg/kg, read-out: MRT in plasma): 0.51 ± 0.06 h | half-life ([5]; nude, mouse, plasma, iv, 10 mg/kg, single i.v. 10 mg/kg, read-out: elimination half-life (T1/2) in plasma (converted)): 1.21 h | AUC(0-t) ([5]; nude, mouse, plasma, iv, single i.v. 10 mg/kg, read-out: plasma AUC(0-8h)): 174 ± 25.2 ng·h/mL | Kp ([5]; nude, mouse, tumor and plasma, intravenous, 10 mg/kg, single dose, read-out: tumor AUC0-t / plasma AUC0-t ratio): 74.4 | concentration at 96 h ([5]; nude, mouse, tumor, intravenous, 10 mg/kg, single dose, read-out: drug concentration in tumor tissue after 96 hours): 69 ng/mL and ~140 nM | Cmax ([5]; nude, mouse, tumor, iv, 10 mg/kg, multiple i.v. 10 mg/kg, read-out: Cmax in tumor): 283 ± 64.8 ng/mL | MRT ([5]; nude, mouse, tumor, iv, 10 mg/kg, multiple i.v. 10 mg/kg, read-out: MRT in tumor): 34.7 ± 1.86 h | half-life ([5]; nude, mouse, tumor, iv, 10 mg/kg, multiple i.v. 10 mg/kg, read-out: elimination half-life (T1/2) in tumor (converted)): 68.7 ± 54.5 h | Cmax ([5]; nude, mouse, tumor, iv, 10 mg/kg, single i.v. 10 mg/kg, read-out: Cmax in tumor): 1040 ± 167 ng/mL | MRT ([5]; nude, mouse, tumor, iv, 10 mg/kg, single i.v. 10 mg/kg, read-out: MRT in tumor): 39.5 ± 4.74 h | half-life ([5]; nude, mouse, tumor, iv, 10 mg/kg, single i.v. 10 mg/kg, read-out: elimination half-life (T1/2) in tumor (converted)): 45.3 h | tumor AUC(0-96h) ([5]; single i.v. 10 mg/kg): 12922 ± 498 µg/Lh
